Experiment [1] deals with E. coli H69 humanized mutant ribosome RFP strain growth, fluorescence, 24 h. As to the kind of experiment: growth inhibition of wild-type GFP E. coli, dose response, H69 mutant RFP, cherry-pick (AID 977621).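 Further: wild-type GFP and H69 mutant RFP strains grown together 50/50 in each well.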 Particulars: test 2.
In experiment [2] the test system is E. coli wild-type GFP strain growth, fluorescence, 24 h. Described as above.
Setting [3] is: E. coli mixed culture, 24 h, measured here: total growth OD600, test 2.

Results filed as inconclusive are left out. Activity calls are given as the source filed them.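 How the source made its calls: active means Wild-type ribosome reporter drop at least double the humanized mutant ribosome reporter drop, growth loss under a set limit; inconclusive means no clear call, values can overlap the other calls; inactive means the rest.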

In general, AC50 refers to the midpoint of the concentration-response curve, whichever way the signal moves.

Take `COc1ccc(C)cc1NC(=O)c1nn(C)cc1Br`: the results for the AC50 in experiment [1], in experiment [2] and in experiment [2] (setting [3]) were more than 100 µM, > 100 µM (inactive) and 33.9 µM, respectively.
With `COc1ccccc1NC(=O)CSc1nccn1Cc1ccc(F)cc1`, the half-maximal activity concentration (AC50) in experiment [1] was 30.8 µM; in experiment [2] (setting [3]), more than 100 µM.
With `O=S(=O)(c1ccccc1)N1C[C@@H]2[C@H](c3ccccc31)[C@H](CO)N2Cc1ccccc1`, the AC50 in experiment [1] is more than 100 µM; in experiment [2], > 100 µM (inactive).
On to `CCc1ccn2cc(-c3ccc4c(c3)OCO4)nc2c1`, for which the AC50 in experiment [1] and in experiment [2] (setting [3]) was more than 100 µM each time.
For `C=C(C)Cn1c(=O)c2c(nc3n2CCCN3Cc2ccccc2)n(C)c1=O`, the results for the AC50 in experiment [1] and in experiment [2] were more than 100 µM and > 100 µM (inactive), respectively.
For `CSc1nc2nc3c(cc2c(=O)n1-c1ccccc1C)CCCC3`, the AC50 in experiment [1] and in experiment [2] (setting [3]) was more than 100 µM in each case.
For `Cc1ccc(N(CC(O)Cn2nc(C)cc2C)S(=O)(=O)c2ccc3ccccc3c2)cc1` (centres undefined), the half-maximal activity concentration (AC50) in experiment [1] was more than 100 µM; in experiment [2], > 100 µM (inactive); in experiment [2] (setting [3]) it was 31.5 µM.
With `Cc1ccn2cc(-c3cccc(NC(=O)c4cccs4)c3)nc2c1`, the AC50 in experiment [1] and in experiment [2] (setting [3]) was more than 100 µM in each case.
Consider `O=C(O)CCC(=O)NCc1c(Cl)cccc1Sc1ccc(Cl)cc1`, for which the AC50 is more than 100 µM in experiment [1] and > 100 µM (inactive) in experiment [2].
Consider `CCSc1nc2ccccc2c(=O)n1CCc1ccc(OC)c(OC)c1`, for which the figures for the AC50 in experiment [1], in experiment [2] and in experiment [2] (setting [3]) were 47.2 µM, > 100 µM (inactive) and 44.4 µM, respectively.
In the case of `COc1ccccc1NS(=O)(=O)c1cc(C(=O)Nc2ccc(S(=O)(=O)Nc3onc(C)c3C)cc2)ccc1C`, the AC50 was 4.45 µM in experiment [1] and > 100 µM (inactive) in experiment [2].
With `CCCc1c(C(=O)Nc2ccc(OC)cc2)cnn1-c1ccccc1`, the AC50 in experiment [1] was more than 100 µM; in experiment [2] it was > 100 µM (inactive); in experiment [2] (setting [3]), 38.1 µM.
Taken in the same sequence, the figures for `O=C(NC1=NCCS1)c1sc2ccccc2c1Cl` were more than 100 µM, > 100 µM (inactive) and 43.6 µM.
With `Cc1ccccc1-n1c([C@@H]2C[C@H]2c2ccccc2)n[nH]c1=S`, the AC50 in experiment [1] was determined as 5.56 µM; in experiment [2] (setting [3]), 1.6 µM.
The matching figures for `C=C1c2cc3c(cc2NC(=S)N1Cc1ccccc1)OCO3`: more than 100 µM and less than 0.6 µM.
Take `O=C(O)CCSc1nc2ccccc2n1-c1ccccc1`: the AC50 is 7.77 µM in experiment [1], > 100 µM (inactive) in experiment [2] and 26.9 µM in experiment [2] (setting [3]).
Take `CCn1cc(Br)c(C(=O)Nc2ccc(C(=O)OC(C)C)cc2)n1`: the AC50 in experiment [1] was 24.1 µM; in experiment [2], > 100 µM (inactive).
The matching figures for `COC(=O)c1c(NC(=O)c2ccccc2C(=O)O)sc2c1CCC2`: 45.4 µM and > 100 µM (inactive).
With `COC(=O)C[C@H]1C[C@@H]2c3cc(NC(=O)Nc4ccc(C(F)(F)F)cc4)ccc3O[C@@H]2[C@H](CO)O1`, the AC50 in experiment [1] was more than 100 µM; in experiment [2], > 100 µM (inactive); in experiment [2] (setting [3]), more than 100 µM.
For the compound `COc1ccc(OC)c(N(CC(=O)Nc2ccccc2F)S(=O)(=O)c2ccccc2)c1`, in experiment [1], the AC50 is 4.66 µM.
Same read-out and setting: the value for `O=C(Nc1nnc(Cc2ccc(Cl)cc2)s1)c1ccncc1` was more than 100 µM.
For the compound `O=C(O)C1CCCCC1C(=O)Nc1ccc(OCc2ccccc2)cc1` (centres undefined), the figures for the AC50 in experiment [1] and in experiment [2] were more than 100 µM and > 100 µM (inactive), respectively.
On to `CC(C)C[C@H]1COc2cc(Br)ccc2S(=O)(=O)N1`, for which the AC50 in experiment [1] is 5.91 µM; in experiment [2] (setting [3]), more than 100 µM.
`Cc1ccc2c(N)c(C(=O)c3ccccc3)sc2n1` had an AC50 in experiment [1] of 50.8 µM.
`O=c1c2cc(Br)ccc2[nH]c(=S)n1Cc1ccccc1`: the AC50 in experiment [1] is more than 100 µM; in experiment [2] (setting [3]), 43.2 µM.
In experiment [1], `CCOc1ccc(NC(=O)CCc2nnc3ccc(N4CCC(C)CC4)nn23)cc1` displayed an AC50 of 51.2 µM.
Same read-out and setting: the value for `CCc1cc2c(=O)n(Cc3ccccc3)c(SC3CCOC3=O)nc2s1` (centres undefined) was 52.3 µM.
On to `Cc1ccc(S(=O)(=O)Nc2ccccc2CNc2ccccn2)cc1`, for which the AC50 is 50.6 µM in experiment [1], > 100 µM (inactive) in experiment [2] and 48.9 µM in experiment [2] (setting [3]).

The values above are taken from PubChem BioAssay AID977621 (Broad Institute, 2014).
